Assay results from patent US12728119B2, “Pharmaceutical composition for preventing or treating cancer comprising 3-ketoacyl CoA thiolase inhibitor and carnitine acylcarnitine carrier inhibitor” (NATIONAL CANCER CENTER, priority 2020, dated 2026).
Several values for one entry are separate records, joined by “and”; a condition that tells them apart may be missing. Equal entries are not always repeated.

Columns and labels:
Format in all cases: cell-based
[1] = system: Panc-1 pancreatic cancer cells; assay: SRB analysis 2; conditions: 48 hours
[2] = system: SW1990 pancreatic cancer cells; assay: SRB analysis 2; conditions: 48 hours
[3] = system: A375 melanoma cell line; assay: SRB analysis 3; conditions: 48 hours
Experimental: (§1) Through SRB analysis (n=3), the effect of triple combination treatment of a CAC inhibitor (KN510: omeprazole), ACAA inhibitor (KN713: trimetazidine) and other anticancer drug on cell growth in the cancer cells was analyzed. (see Table 11).
(§2) The SRB assay was performed as follows: each cell line (100 μl) was seeded into 96-well microtiter plates at densities ranging from 5,000 to 40,000 cells/well depending on the doubling time of each cell line. After 24 hours, drug (100 μl per well) was added to each well and the culture was incubated at 37° C. for 48 hours. Cells were then fixed in 50% TCA (50 μl per well) and plates were incubated at 4° C. for a minimum of 1 hour or a maximum of 3 hours. After that, the liquid was removed from the plate, then rinsed 5 times with water and dried for approximately 12-24 hours at room temperature (RT). After the fixed cells were stained with 0.4% SRB (100 μl per well) for 10 minutes at room temperature, the plates were washed 3 times with 1% glacial acetic acid and dried at room temperature for about 12-24 hours. SRB staining was dissolved in 10 mM Trizma base and absorbance was read at 515 nm. The effect of the drug was expressed as GI50 (50% growth inhibition), TGI (total growth inhibition) or LC50 (lethal concentration). GI50 is the maximum concentration at the moment of 50% inhibition of cell proliferation and IC50 is the concentration of the drug that inhibits the enzyme activity in vitro by 50% in this study.

[4] = system: A549 non-small cell lung cancer (NSCLC) cell line; assay: SRB analysis 3; conditions: 48 hours
Experimental: as §1, §2

[5] = system: ACHN renal cancer cell line; assay: SRB analysis 3; conditions: 48 hours
Experimental: as §1, §2

[6] = system: AGS gastric cancer cell line; assay: SRB analysis 3; conditions: 48 hours
Experimental: as §1, §2

[7] = system: AsPC-1 pancreatic cancer (PDAC) cell line; assay: SRB analysis 3; conditions: 48 hours
Experimental: as §1, §2

[8] = system: COLO-205 colon cancer cell line; assay: SRB analysis 3; conditions: 48 hours
Experimental: as §1, §2

[9] = system: Caki-1 renal cancer cell line; assay: SRB analysis 3; conditions: 48 hours
Experimental: as §1, §2

[10] = system: DU145 prostate cancer cell line; assay: SRB analysis 3; conditions: 48 hours
Experimental: as §1, §2

[11] = system: H1975 non-small cell lung cancer (NSCLC) cell line; assay: SRB analysis 3; conditions: 48 hours
Experimental: as §1, §2

[12] = system: HCT-116 colon cancer cell line; assay: SRB analysis 3; conditions: 48 hours
Experimental: as §1, §2

[13] = system: Huh-7 liver cancer cell line; assay: SRB analysis 3; conditions: 48 hours
Experimental: as §1, §2

[14] = system: MCF7 breast cancer cell line; assay: SRB analysis 3; conditions: 48 hours
Experimental: as §1, §2

[15] = system: MDA-MB-231 breast cancer cell line; assay: SRB analysis 3; conditions: 48 hours
Experimental: as §1, §2

[16] = system: MIA PaCa-2 pancreatic cancer (PDAC) cell line; assay: SRB analysis 3; conditions: 48 hours
Experimental: as §1, §2

[17] = system: MKN45 gastric cancer cell line; assay: SRB analysis 3; conditions: MKN45, 48 hours
Experimental: as §1, §2

[18] = system: OVCAR-8 ovarian cancer cell line; assay: SRB analysis 3; conditions: 48 hours
Experimental: as §1, §2

[19] = system: PC-3 prostate cancer cell line; assay: SRB analysis 3; conditions: 48 hours
Experimental: as §1, §2

[20] = system: SK-OV-3 ovarian cancer cell line; assay: SRB analysis 3; conditions: 48 hours
Experimental: as §1, §2

[21] = system: SK-hep-1 liver cancer cell line; assay: SRB analysis 3; conditions: 48 hours
Experimental: as §1, §2

[22] = system: UACC62 melanoma cell line; assay: SRB analysis 3; conditions: 48 hours
Experimental: as §1, §2

COc1ccc2[nH]c([S+]([O-])Cc3ncc(C)c(OC)c3C)nc2c1 (centres unmarked) [KN510, omeprazole]
degree of cell growth based on the control (100%) ([1]; KN510 100 μM): 63.06% | degree of cell growth based on the control (100%) ([1]; KN510 200 μM): 19.45% | degree of cell growth based on the control (100%) ([2]; KN510 100 μM): 90.16% | degree of cell growth based on the control (100%) ([2]; KN510 200 μM): 63.83% | cell growth (Control = 100) ([3]; KN510 100 μM): 79.18 | cell growth (Control = 100) ([4]; KN510 100 μM): 55.4 and 30.1 | cell growth (Control = 100) ([5]; KN510 100 μM): 61.17 | cell growth (Control = 100) ([6]; KN510 100 μM): 65.05 | cell growth (Control = 100) ([7]; KN510 100 μM): 65.83 | cell growth (Control = 100) ([8]; KN510 100 μM): 78.03 | cell growth (Control = 100) ([9]; KN510 100 μM): 102.1283 | cell growth (Control = 100) ([10]; KN510 100 μM): 76.71 | cell growth (Control = 100) ([11]; KN510 100 μM): 84.1319 | cell growth (Control = 100) ([12]; KN510 100 μM): 79.65 | cell growth (Control = 100) ([13]; KN510 100 μM): 77.73 | cell growth (Control = 100) ([14]; KN510 100 μM): 70.3 | cell growth (Control = 100) ([15]; KN510 100 μM): 86.99 | cell growth (Control = 100) ([16]; KN510 100 μM): 65.94 | cell growth (Control = 100) ([17]; KN510 100 μM): 62.39 | cell growth (Control = 100) ([18]; KN510 100 μM): 68.75 | cell growth (Control = 100) ([19]; KN510 100 μM): 59.63 | cell growth (Control = 100) ([20]; KN510 100 μM): 85.06 | cell growth (Control = 100) ([21]; KN510 100 μM): 60.38 | cell growth (Control = 100) ([22]; KN510 100 μM): 50.83

COc1ccc(CN2CCNCC2)c(OC)c1OC [KN713, trimetazidine]
cell growth (Control = 100) ([3]; KN713 2.5 mM): 70.33 | cell growth (Control = 100) ([4]; KN713 2.5 mM): 68.8 and 79.2 | cell growth (Control = 100) ([5]; KN713 2.5 mM): 65.67 | cell growth (Control = 100) ([6]; KN713 2.5 mM): 60.34 | cell growth (Control = 100) ([7]; KN713 2.5 mM): 58.71 | cell growth (Control = 100) ([8]; KN713 2.5 mM): 31.62 | cell growth (Control = 100) ([9]; KN713 2.5 mM): 47.58 | cell growth (Control = 100) ([10]; KN713 2.5 mM): 55.68 | cell growth (Control = 100) ([11]; KN713 2.5 mM): 62.58 | cell growth (Control = 100) ([12]; KN713 2.5 mM): 36.64 | cell growth (Control = 100) ([13]; KN713 2.5 mM): 52.09 | cell growth (Control = 100) ([14]; KN713 2.5 mM): 60.36 | cell growth (Control = 100) ([15]; KN713 2.5 mM): 74.5469 | cell growth (Control = 100) ([16]; KN713 2.5 mM): 39.45 | cell growth (Control = 100) ([17]; KN713 2.5 mM): 72.85 | cell growth (Control = 100) ([18]; KN713 2.5 mM): 72.86 | cell growth (Control = 100) ([19]; KN713 2.5 mM): 45.06 | cell growth (Control = 100) ([20]; KN713 2.5 mM): 83.37 | cell growth (Control = 100) ([21]; KN713 2.5 mM): 157.7818 | cell growth (Control = 100) ([22]; KN713 2.5 mM): 54.65
